Data published in patent US6829540B1, “Drug discovery using multiple membrane mimetic affinities” (priority 1997, dated 2004).
Where two headings read alike, the source gives them in different places.

Key:
[1] = cited from earlier work
[2] = HPLC membrane binding on immobilized artificial membrane IAM.PC; assay type: physicochemical; details: for Membrane affinity IAM.PC: Ln weighted, Table 3; for Membrane binding properties IAM.PC: Table 1
Experimental: (§1) The analysis is made by pattern matching membrane binding constants measured on immobilized artificial membrane columns in a high performance liquid chromatography system. Two or more immobilized artificial membrane chromatographic columns are used. Each test compound is injected and chromatographed on each column and the peak width and the peak time of the test compound is recorded and normalized to an internal or external standard. Thus experimentally measured selectivity values (αk′=k′/k′ standard) and normalized standard deviations (αsd=σ/σstandard) were calculated for both the test compounds and compounds of known biological properties. Pattern matching using vector calculus, multivariate analysis or principal component analysis of the αk′ and αsd values of the test compound and the control compounds allows comparison of the membrane binding properties of the test compounds and each of the control compounds or, if the control compounds all have a common biological activity/property, average or mean membrane binding values of the set of control compounds for each membrane surface.
(§2) Membrane binding constants (k′ values) are calculated in accordance with the formula k′=(tr−t0)/t0 wherein tr is the retention time and t0 is the dead time obtained from each injection; however, t0 in the denominator was obtained by averaging the experimentally determined t0 from all injections for each day the data are collected.
(§3) The use of chromatography on immobilized artificial membranes provides data characteristic of both equilibrium binding to the respective membrane mimetic surface (k′ values) and the kinetics of mass transfer between the immobilized artificial membrane surface and the mobile phase (i.e. δ values). […] This unavoidable variation in the experimentally determined k′ and δ values for each test compound and each control compound is eliminated, for pattern matching purposes, by normalizing k′ and δ values to an internal or external standard compound chromatographed on each immobilized artificial membrane column. Thus k′ and δ values for the test compounds are each divided by the respective k′ and δ values of the standard to calculate αk′ and αsd, the selectivity values and normalized standard deviations, respectively. For k′ values, α denotes the selectivity of the immobilized artificial membrane chromatographic surface for molecular recognition of the analyte; α is a thermodynamic property and corresponds to a ratio of membrane partition coefficients.
(§4) Thus, in one embodiment of this invention the membrane binding properties of six hallucinogens were measured on immobilized artificial membranes (IAMs) prepared from phosphatidylcholine (IAM.PC), phosphatidylserine (IAM.PS), phosphatidylethanolamine (IAM.PE), and sphingomyelin (IAM.SM). Mean vectors were calculated for several therapeutic classes of compounds. The calculated mean vector (i.e., the average vector representing a group of compounds with similar biological activity) is shown in Table 1 for hallucinogenic compounds.
(§5) In one embodiment of this invention membrane binding constants are measured by injecting the drugs into high performance liquid chromatographs (HPLC) using immobilized artificial membrane (IAM) columns using the following IAM stationary phases:
(§6) ^esterIAM.PC^C10/C3, ^esterIAM.PE^C10/C3, ^esterIAM.PS^C10/C3, and ^esterIAM.SM^C10/C3
(§7) The peak position of the drug in the chromatogram is a measure of the affinity of the compound for the immobilized membrane surface. The retention time (peak time) was used to calculate the capacity factor, k′, of the compound for the IAM surface. Capacity factors are proportional to equilibrium membrane binding constants K according to
(§8) Membrane binding data (numerical values relating to interaction with membranes or membrane mimetic surfaces) were obtained using HPLC chromatography on a multiplicity of membrane mimetic surfaces, preferably immobilized artificial membranes (IAMs). […]

[3] = HPLC membrane binding on immobilized artificial membrane IAM.PE; assay type: physicochemical; details: for Membrane affinity IAM.PE: Ln weighted, Table 3; for Membrane binding properties IAM.PE: Table 1
Experimental: as §1, §2, §3, §4, §5, §6, §7, §8

[4] = HPLC membrane binding on immobilized artificial membrane IAM.PS; assay type: physicochemical; details: for Membrane affinity IAM.PS: Ln weighted, Table 3; for Membrane binding properties IAM.PS: Table 1
Experimental: as §1, §2, §3, §4, §5, §6, §7, §8

[5] = HPLC membrane binding on immobilized artificial membrane IAM.SM; assay type: physicochemical; details: for Membrane affinity IAM.SM: Ln weighted, Table 3; for Membrane binding properties IAM.SM: Table 1
Experimental: as §1, §2, §3, §4, §5, §6, §7, §8

[6] = Table 7, compounds completely absorbed
[7] = Table 8, high oral absorption training set
[8] = Table 6, low oral absorption training set
[9] = Table 9, compounds with low oral absorption

SMILES: Clc1cccc(Cl)c1N=C1NCCN1 [clonidine]
- Oral Absorption (%) [1, 6]: 95%
- Oral Absorption (%) [1, 7]: 95%

SMILES: COc1cc(CC(C)N)c(OC)cc1Br (stereo not drawn) [2,5-dimethoxy-4-bromoamphetamine]
- Membrane affinity IAM.PC [2]: 2.07
- Membrane binding properties IAM.PC [2]: 15.260
- Membrane affinity IAM.PE [3]: 3.22
- Membrane binding properties IAM.PE [3]: 20.950
- Membrane affinity IAM.PS [4]: 4.68
- Membrane binding properties IAM.PS [4]: 143.400
- Membrane affinity IAM.SM [5]: 1.62
- Membrane binding properties IAM.SM [5]: 20.970

SMILES: CNC(=C[N+](=O)[O-])NCCSCc1ccc(CN(C)C)o1 [ranitidie, ranitidine]
- Oral Absorption (%) [1, 8]: 50%
- Oral Absorption (%) [1, 9]: 50%

SMILES: CN(C)CCc1c[nH]c2cccc(O)c12 [psilocin]
- Membrane affinity IAM.PC [2]: 0.900
- Membrane binding properties IAM.PC [2]: 4.656
- Membrane affinity IAM.PE [3]: 1.79
- Membrane binding properties IAM.PE [3]: 4.818
- Membrane affinity IAM.PS [4]: 2.80
- Membrane binding properties IAM.PS [4]: 4.941
- Membrane affinity IAM.SM [5]: 0.502
- Membrane binding properties IAM.SM [5]: 7.532

SMILES: CCN1CCCC1CNC(=O)c1cc(S(N)(=O)=O)ccc1OC (stereo not drawn) [sulpiride]
- Oral Absorption (%) ([1]; in vivo, po): 36%

SMILES: CCC1(c2ccccc2)C(=O)NC(=O)NC1=O [phenobarbital]
- Oral Absorption (%) [1, 6]: 100%
- Oral Absorption (%) [1, 7]: 100%

SMILES: CCOC(=O)C(C)(C)Oc1ccc(Cl)cc1 [clofibrate]
- Oral Absorption (%) [1, 6]: 95%
- Oral Absorption (%) [1, 7]: 95%

SMILES: COc1cc([C@@H]2c3cc4c(cc3[C@@H](O[C@@H]3O[C@@H]5CO[C@@H](C)O[C@H]5[C@H](O)[C@H]3O)[C@H]3COC(=O)[C@H]23)OCO4)cc(OC)c1O [etoposide]
- Oral Absorption (%) [1, 8]: 50%
- Oral Absorption (%) [1, 9]: 50%

SMILES: COc1cc(CCNC(C)=O)cc(OC)c1OC [n-acetylmescaline]
- Membrane binding properties IAM.PC [2]: 0.706
- Membrane binding properties IAM.PE [3]: 1.323
- Membrane binding properties IAM.PS [4]: 0.736
- Membrane binding properties IAM.SM [5]: 1.051

SMILES: CNC1(c2ccccc2Cl)CCCCC1=O (stereo not drawn) [ketamine]
- Oral Absorption (%) [1, 8]: 20%
- Oral Absorption (%) [1, 9]: 20%

SMILES: CC(N)Cc1ccc2c(c1)OCO2 (stereo not drawn) [MDA, 3,4-methylendioxyamphetamine]
- Membrane affinity IAM.PC [2]: 0.298
- Membrane affinity IAM.PE [3]: 1.32
- Membrane affinity IAM.PS [4]: 3.28
- Membrane affinity IAM.SM [5]: −0.0647

SMILES: COc1cc(C[C@@H](C)N)c(OC)cc1I [(R)-2,5-dimethoxy-4-iodoamphetamine]
- Membrane binding properties IAM.PC [2]: 55.53
- Membrane binding properties IAM.PE [3]: 29.76
- Membrane binding properties IAM.PS [4]: 260.200
- Membrane binding properties IAM.SM [5]: 53.41

SMILES: O=C1CN=C(c2ccccc2Cl)c2cc([N+](=O)[O-])ccc2N1 [clonazepam]
- Oral Absorption (%) [1, 6]: 98%
- Oral Absorption (%) [1, 7]: 98%

SMILES: CNC1=Nc2ccc(Cl)cc2C(c2ccccc2)=[N+]([O-])C1 [chlorodiazepoxide, chlordiazepoxide]
- Oral Absorption (%) [1, 6]: 100%
- Oral Absorption (%) [1, 7]: 100%

SMILES: CC(N)Cc1ccc(I)cc1 (stereo not drawn) [p-iodoamphetamine]
- Membrane binding properties IAM.PC [2]: 24.880
- Membrane binding properties IAM.PE [3]: 33.660
- Membrane binding properties IAM.PS [4]: 258.100
- Membrane binding properties IAM.SM [5]: 32.410

SMILES: COc1cc(CCN)cc(OC)c1OC [mescaline]
- Membrane affinity IAM.PC [2]: −0.477
- Membrane binding properties IAM.PC [2]: 1.476
- Membrane affinity IAM.PE [3]: 0.670
- Membrane binding properties IAM.PE [3]: 2.134
- Membrane affinity IAM.PS [4]: 2.43
- Membrane binding properties IAM.PS [4]: 12.280
- Membrane affinity IAM.SM [5]: −0.715
- Membrane binding properties IAM.SM [5]: 2.074

SMILES: CCCC(=O)Nc1ccc(OCC(O)CNC(C)C)c(C(C)=O)c1 (stereo not drawn) [acebutolol]
- Oral Absorption (%) [1, 8]: 37%
- Oral Absorption (%) [1, 9]: 37%

SMILES: O=C1NC(=O)C(c2ccccc2)(c2ccccc2)N1 [phenytoin]
- Oral Absorption (%) [1, 6]: 100%
- Oral Absorption (%) [1, 7]: 100%

SMILES: C=CCc1ccccc1OCC(O)CNC(C)C (stereo not drawn) [alprenolol]
- Oral Absorption (%) [1, 6]: 96%
- Oral Absorption (%) [1, 7]: 96%

SMILES: COc1cc(CC(C)N)c(OC)cc1I (stereo not drawn) [DOI]
- Membrane affinity IAM.PC [2]: 2.61
- Membrane affinity IAM.PE [3]: 3.73
- Membrane affinity IAM.PS [4]: 6.13
- Membrane affinity IAM.SM [5]: 2.14

SMILES: C[C@]12C[C@H](O)[C@H]3[C@@H](CCC4=CC(=O)CC[C@@]43C)[C@@H]1CC[C@@H]2C(=O)CO [corticosterone]
- Oral Absorption (%) [1, 6]: 100%
- Oral Absorption (%) [1, 7]: 100%
